Reference: publication PMC12769565, “Design, synthesis and biological activity of glycoconjugated ADAMTS5 exosite inhibitors: applications in osteoarthritis and ovarian cancer models” (Scientific Reports, 2025)

Legend:
ADAMTS5 = target: T1, ADAMTS5 (Homo sapiens, UniProt Q9UNA0); assay: Aggrecanase assay (bovine aggrecan, anti-ARGSV neoepitope immunoblot); format: biochemical
T1 construct: Human recombinant full-length FLAG-tagged ADAMTS4 and ADAMTS5 were expressed in HEK293T cells; FLAG; made in house; host or cells: HEK293T cells
T1 sequence (Q9UNA0 262-930): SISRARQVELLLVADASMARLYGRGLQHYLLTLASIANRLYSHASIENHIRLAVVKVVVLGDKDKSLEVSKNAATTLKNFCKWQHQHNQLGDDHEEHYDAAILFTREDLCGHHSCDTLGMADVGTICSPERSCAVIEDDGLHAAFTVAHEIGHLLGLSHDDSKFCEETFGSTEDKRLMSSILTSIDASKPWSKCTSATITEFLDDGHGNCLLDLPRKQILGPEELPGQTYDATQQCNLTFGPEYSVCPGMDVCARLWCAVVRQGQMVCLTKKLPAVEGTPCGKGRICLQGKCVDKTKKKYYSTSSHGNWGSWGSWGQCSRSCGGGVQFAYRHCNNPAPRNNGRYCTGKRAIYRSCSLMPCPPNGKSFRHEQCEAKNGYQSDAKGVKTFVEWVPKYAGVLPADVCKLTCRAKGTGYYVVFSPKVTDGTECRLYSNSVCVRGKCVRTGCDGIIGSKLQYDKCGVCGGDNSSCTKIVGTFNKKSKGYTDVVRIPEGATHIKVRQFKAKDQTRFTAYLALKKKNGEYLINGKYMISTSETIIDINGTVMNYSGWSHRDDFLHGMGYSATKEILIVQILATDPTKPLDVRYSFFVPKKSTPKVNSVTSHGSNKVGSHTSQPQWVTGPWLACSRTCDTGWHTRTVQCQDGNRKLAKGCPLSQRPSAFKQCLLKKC
Method: Aggrecanase assays were carried out as before. ADAMTS5 (1 nM) was incubated with compounds 2 and 3 or DMSO for 2 h at 37 °C in TNC-B buffer before addition of bovine articular aggrecan (UniProt ID: P13608, 270 nM) (Merck, A1960). After 2 h digestion at 37 °C, the reactions were stopped with ethylenediaminetetraacetic acid and the samples incubated with 0.1 U/ml of chondroitinase ABC (AMS Biotechnology, Abingdon, UK) and keratanase (endo-beta galactosidase, Merck, G6920) in deglycosylation buffer (50 mM sodium acetate, 25 mM Tris HCl pH 8.0) for 16 h at 37 °C to remove GAG chains.
Samples were separated by SDS-PAGE under reducing conditions (5% β-mercaptoethanol) on BOLT, 4–12%, Bis-Tris Gels (Invitrogen) in MES Running Buffer (NuPAGE). Proteins were transferred onto a nitrocellulose membrane using Trans-Blot Turbo™ Transfer System (BioRad), at 25 V, 2.5 A for 30 min. Membranes were blocked with 3% BSA/PBS for 1 h at room temperature. Aggrecan fragments generated by ADAMTS cleavage at E^392-A^393[8] or E^1953-A^1954[68] were detected using mouse monoclonal anti-ARGSV antibody (BC3, Life Technologies, MA3-16888, 4 µg/ml) or polyclonal anti-AGEG neoepitope antibody (serum, 1:200 dilution)[12],[33], respectively, followed by the appropriate horseradish peroxidase (HRP)-conjugated secondary antibodies (polyclonal Goat Anti-Mouse P0447, 0.1 ng/µl and polyclonal Goat Anti-Rabbit, P0448, 0.03 ng/µl, both from Agilent Technologies LDA UK Ltd). All antibodies were diluted in 0.5% bovine serum albumin (BSA)/PBS. Washes between each step were carried out in triplicate, for 15 min each, with PBS-Tween (0.1%). Following addition of the chemiluminescent HRP substrate (Millipore, WBKL30500) membranes were imaged using Bio-Rad Chemidoc Touch Imaging System. Analysis was carried out using BioRad ImageLab software (version 5.2.1) using sequential exposures to avoid saturation artifacts. Figures for unprocessed blots are included in Supplementary information Fig. S4 and Fig. S5 with highlighted regions (in red boxes) corresponding to the data reported in the main manuscript figures.

[1] = tested on: A2780 OC cells over-expressing Rab25; assay: OC cell migration on cell-derived matrix (pseudopod length, directionality, velocity); format: cell-based; conditions: cells on CDM
Method: A2780 OC cells over-expressing Rab25 (A2780-Rab25), generated in G. Mills lab[71], and telomerase-immortalised human fibroblasts (TIFs) were a gift from Jim Norman lab (CRUK Scotland Institute). A2780-Rab25 cells were grown in RPMI media (Gibco), supplemented with 10% (v/v) FBS. TIFs were grown in DMEM, supplemented with 10% FBS. To maintain Rab25 over-expression, A2780-Rab25 cells were selected with 0.4 mg/ml G418 every 10 passages.
CDMs were generated as previously described[72] in 12 well plates. Wells were coated with 0.2% gelatin for 60 min at 37 °C, crosslinked with 1% glutaraldehyde for 30 min at room temperature, quenched with 1 M glycine for 20 min at room temperature and equilibrated in DMEM for 30 min at 37 °C. TIFs (2.5 × 10^5 per well) were seeded for 24 h to achieve confluency and grown in the presence of 50 µg/ml ascorbic acid for 9 days. CDMs were washed with PBS, incubated with extraction buffer (20 mM NH4OH, 0.5% Triton X-100 in PBS with Ca^2+ and Mg^2+) for ~ 2 min, until no intact cells were visible by phase, washed twice with PBS with Ca^2+ and Mg^2+ and treated with 15 µg/ml DNase for 1 h at 37 °C, 5% CO2. CDMs were washed twice with PBS with Ca^2+ and Mg^2+ and stored in PBS with Ca^2+ and Mg^2+ at 4 °C for up to one month.
A2780-Rab25 cells (5 × 10^4 per well) were seeded onto a CDM-coated 12-well plate. Compound 2 was added 4 h after plating. Plates were imaged in a Nikon Inverted Ti eclipse microscope with Oko-lab environmental control chamber with a 10x/NA 0.45 objective. Cells were incubated at 37 °C and 5% CO2, images were acquired every 10 min for 12 h and more than 40 cells per well were quantified per biological replicate. Individual cell migration was manually tracked using MTrack2, a Fiji/ImageJ plugin. The chemotaxis tool plugin in Fiji/Image J (https://ibidi.com/chemotaxis-analysis/171-chemotaxis-and-migration-tool.html) was used to calculate the velocity and directionality of migrating cells.

[2] = tested at 10 or 50 µM, concentration of this value not stated

CCC(C)N(Cc1cn(CCCO[C@@H]2O[C@H](CO)[C@@H](O[C@@H]3O[C@H](CO)[C@H](O)[C@H](O)[C@H]3O)[C@H](O)[C@H]2NC(C)=O)nn1)S(=O)(=O)c1ccc(-c2ccccc2)cc1 (stereo partly drawn) [compound 2, N-((2R,3R,4R,5 S,6R)-2-(3-(4-((N-(sec-butyl)-[1,1’-biphenyl]-4-sulfonamido)methyl)-1H-1,2,3-triazol-1-yl)propoxy)-4-hydroxy-6-(hydroxymethyl)-5-(((2 S,3R,4 S,5R,6R)-3,4,5-trihydroxy-6-(hydroxymethyl)tetrahydro-2 H-pyran-2-yl)oxy)tetrahydro-2 H-pyran-3-yl)acetamide]
inhibition at 10 µM (ADAMTS5; 10 µM): 53%
inhibition at 100 µM (ADAMTS5; 100 µM): 80%
velocity of cell migration ([1]; 10 or 50 µM): without affecting
inhibition in directionality of cell migration [1, 2]: 43%
inhibition in pseudopod elongation [1, 2]: 35%
